The values that follow come from patent US10098878B2, “HIF-2α inhibitors for treating iron overload disorders” (The Board of Regents of the University of Texas System, priority 2014, dated 2018).

Read-outs that look alike come from different tables or passages of the source. Bounds are passed on as bounds.

Experiment [1] relates to 786-0 cells. Kind of experiment: VEGF ELISA Assay. Type of experiment: cell-based. The following applies: Homo sapiens. As for the experimental part:
Each concentration had duplicated wells. About 20 hours later, medium was removed by suction and each well was supplied with 180 μL of growth medium. About 20 μl freshly-made 10× compound stocks were added to each well. […] The EC50 was calculated by GraphPad Prism using the dose-response-inhibition (four parameter) equation. The cell seeded plate was then subjected to CellTiter-Glo luminescence cell viability assay (Promega) by adding 50 μL of Celltiter Glo reagent into each well and shaking the plate for 8 minutes at 550 rpm (Thermomixer R, Eppendorf) then read luminescence signal in plate reader (3 second delay, 0.5 second/well integration time, Synergy 2 multi Detection Microplate reader) immediately.

For experiment [2], the system named is 786-O-Hif-Luc cells. The experiment is described as follows: Luciferase Assay. It is filed as cell-based. The note with it: read-out: Luciferase EC50. The method, then: A pool of infected cells were then selected against 2 μg/mL of puromycin (P8833, Sigma) for 10 days followed by limited dilution to select single clones.
Each concentration was tested in triplicate. After about 24 hours, luciferase activity was determined using ONE-Glo Luciferase Assay Reagent (E6110, Promega) following the manufacturer's recommended procedure. EC50 were calculated by using Dotmatics software.

For experiment [3], the target named is T1, HIF-2α HIS TAG-PASB Domain (Homo sapiens, UniProt Q99814).
T1 construct: 100 nM HIF-2α HIS TAG-PASB Domain
The experiment is described as follows: HIF-2α Scintillation Proximity Assay (SPA). Type of experiment: binding. The note with it: 100 nM HIF-2α HIS TAG-PASB Domain. Put shortly:
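IC50 values rest on percent inhibition, where the sample signal is scaled between high and low controls. Wells contain about 100 μL: compound dispensed as 2 μL of DMSO solution, 88 μL protein-probe mix and 10 μL of beads.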
(SPA uses beads or plates that emit light when radiolabelled molecules are held near them.)

Where [4] appears, read: 786-0, 786-0 cells, VEGFA concentration in cell culture medium, read-out: VEGF ELISA EC50.
[5] abbreviates: 24 h, 786-O-Hif-Luc cells, about 24 hours.
[6] abbreviates: 150 nM Compound 211 probe, read-out: SPA IC50.

T1 sequence (Q99814 240-350 limits assumed): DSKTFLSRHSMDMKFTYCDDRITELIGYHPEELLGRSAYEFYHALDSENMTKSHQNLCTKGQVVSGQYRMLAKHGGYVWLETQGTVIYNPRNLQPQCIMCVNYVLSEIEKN

One may read the EC50 as the concentration needed to bring the measured effect to its halfway point. The term IC50 denotes the concentration that gives 50% inhibition. Turning to `O=S(=O)(c1ccc(Oc2cc(F)c[n+]([O-])c2)c2c1[C@H](O)C(F)(F)C2)C(F)(F)F` [Compound 74, (S)-3-((2,2-difluoro-1-hydroxy-7-((trifluoromethyl)sulfonyl)-2,3-dihydro-1H-inden-4-yl)oxonio)-5-fluoropyridine 1-oxide], the EC50 in experiment [1] (setting [4]) stood at 140 nM; in experiment [2] (setting [5]), 113 nM. In addition, the half-maximal inhibitory concentration (IC50) in experiment [3] (setting [6]) is 16 nM.

Take `O=S1(=O)c2ccc(Oc3cc(F)cc(Cl)c3)c(Br)c2[C@@H](O)C1(F)F` [Compound 167, (3R)-4-Bromo-5-(3-chloro-5-fluoro-phenoxy)-2,2-difluoro-1,1-dioxo-3H-benzothiophen-3-ol]: the EC50 in experiment [1] (786-0 cells, VEGFA concentration in cell culture medium, read-out: VEGF ELISA EC50) was found to be 45 nM; in experiment [2] (786-O-Hif-Luc cells, about 24 hours) it was 37 nM. The molecule also showed an IC50 in experiment [3] (SPA IC50, 150 nM Compound 211 probe) of under 5 nM.

Turning to `CS(=O)(=O)c1ccc(Oc2cncc(F)c2)c2c1[C@H](O)C(F)(F)[C@@H]2F` [Compound 93, (1S,3R)-2,2,3-trifluoro-4-((5-fluoropyridin-3-yl)oxy)-7-(methylsulfonyl)-2,3-dihydro-1H-inden-1-ol], the EC50 was determined as 47 nM in experiment [1] (setting [4]) and 34 nM in experiment [2] (setting [5]). The IC50 in experiment [3] (setting [6]) was under 5 nM.

On to `N#Cc1cncc(Oc2ccc(C(F)(F)F)c3c2CC(F)(F)[C@H]3O)c1` [Compound 67, 5-[(1S)-2,2-difluoro-1-hydroxy-7-(trifluoromethyl)indan-4-yl]oxypyridine-3-carbonitrile], for which the EC50 was found to be 64 nM in experiment [1] (setting [4]) and 35 nM in experiment [2] (setting [5]). Besides, the IC50 in experiment [3] (setting [6]) amounted to 37 nM.

For `CS(=O)(=O)c1ccc(Oc2cncc(C#N)c2)c2c1[C@H](O)C(F)(F)[C@@H]2F` [Compound 106, 5-(((1S,3R)-2,2,3-trifluoro-1-hydroxy-7-(methylsulfonyl)-2,3-dihydro-1H-inden-4-yl)oxy)nicotinonitrile], the figures for the EC50 in experiment [1] (setting [4]) and in experiment [2] (setting [5]) were 95 nM and 88 nM, respectively. The half-maximal inhibitory concentration (IC50) in experiment [3] (setting [6]) came out at 47 nM.

Regarding `CS(=O)(=O)c1ccc(Oc2cc(F)cc(C#N)c2)c2c1[C@H](O)C(F)(F)[C@@H]2F` [Compound 56, 3-fluoro-5-[(1S,3R)-2,2,3-trifluoro-1-hydroxy-7-methylsulfonyl-indan-4-yl]oxy-benzonitrile], the EC50 in experiment [1] (786-0, read-out: VEGF ELISA EC50) came to 6 nM; in experiment [2] (24 h) it was 3 nM. For the same molecule, in experiment [3] (setting [6]), the IC50 is under 5 nM.
